11 molecules from PMC11051198, “Synthesis and Late-Stage Modification of (−)-Doliculide Derivatives Using Matteson’s Homologation Approach” (Marine Drugs, 2024) can be followed below.

Common to all, as to format: cell-based
One experiment relates to HepG2. Put plainly: MTT cytotoxicity assay, HepG2. As to conditions: HepG2 human hepatocellular carcinoma, 5 d incubation, 37 °C, 5% CO2, DMEM + 10% FBS, mean ± SD of two independent measurements. How it is done: (§1) The cell cultures were cultivated at 37 °C under an atmosphere containing 5% CO2. Before usage, Dulbecco’s Modified Eagle Medium (DMEM) from Gibco (Thermo Fisher Scientific) was supplemented with 10% fetal bovine serum (FBS) from Gibco. Cells were used between passage 5 and 30 and were split separately for at least two passages to obtain biological repeats. Cells were washed with PBS and 0.5 mL trypsin was added before treatment. Cells were then incubated for 5 min before adding 10 mL medium containing 10% FBS. Per well, 120 µL cell suspension 5 × 10^4 cells/mL (CHO-K1, HCT-116. U-2 OS, KB3.1) or 1 × 10^5 cells/mL (HepG2) cells were seeded in transparent 96-well cell bind plate and incubated for 2 h at 37 °C and an atmosphere of 5% CO2. Each compound was tested in a serial dilution so that the starting concentration is 111 µg/mL, which is diluted by 1:3 as well as the internal solvent control prepared in DMEM with 10% FBS. After 5 d incubation at 37 °C and an atmosphere of 5% CO2, 20 μL of 5 mg/mL MTT (thiazolyl blue tetrazolium bromide) in PBS was added per well and cells were further incubated until coloration of the cells. The medium was then discarded and 100 μL 2-propanol/10 N HCl (250:1) added to the cells. The plates were analyzed by measuring the absorbance at 570 nm and 630 nm as reference using a microplate reader Infinite® 200 Pro from Tecan (Männedorf, Switzerland). Absorption is then converted to cell viability expressed as percentage relative to the respective solvent control. The calculated percentage of growth inhibition were determined by sigmoidal curve fitting using GraphPad (Boston, MA, USA) Prism software (version 10.0.2). Two independent measurements were generated for mean and standard deviation.
(Formazan colour is commonly taken as a measure of viable cells.)

A further experiment concerns CHO-K1. Put plainly: MTT cytotoxicity assay, CHO-K1. As to conditions: CHO-K1 mutagenized Chinese hamster ovary, 5 d incubation, 37 °C, 5% CO2, DMEM + 10% FBS, mean ± SD of two independent measurements. How it is done: as §1
In the next experiment the test system is HCT-116. Briefly: MTT cytotoxicity assay, HCT-116. As to conditions: HCT-116 human colon carcinoma, 5 d incubation, 37 °C, 5% CO2, DMEM + 10% FBS, mean ± SD of two independent measurements. How it is done:
as §1

For a further experiment, the system named is U-2 OS. Briefly: MTT cytotoxicity assay, U-2 OS. The settings on record: U-2 OS human bone osteosarcoma, 5 d incubation, 37 °C, 5% CO2, DMEM + 10% FBS, mean ± SD of two independent measurements. How it is done: as §1
Another experiment relates to KB3.1. Briefly: MTT cytotoxicity assay, KB3.1. The settings on record: KB3.1 human epidermoid carcinoma cell line, 5 d incubation, 37 °C, 5% CO2, DMEM + 10% FBS, mean ± SD of two independent measurements. The method, then:
as §1

Where [1] appears, read: ≤ values: individual results varied widely, given as a range.

A value given as a limit tells only on which side of the number the result lay.

As for `C#CC[C@@H]1C[C@H](O)[C@H](C)C[C@H](C)C[C@H](C)C(=O)NCC(=O)N(C)[C@H](Cc2ccc(O)c(I)c2)C(=O)O1` [Compound 8c, (3R,9S,11S,13R,14S,16R)-14-Hydroxy-3-(4-hydroxy-3-iodobenzyl)-4,9,11,13-tetramethyl-16-(prop-2-yn-1-yl)-1-oxa-4,7-diazacyclohexadecane-2,5,8-trione], the IC50 (commonly the concentration that gives 50% inhibition) in the experiment on HepG2 stood at 0.147 ± 0.065 µM; with CHO-K1, 0.474 ± 0.147 µM; in the experiment on HCT-116 (setting [1]), 0.065 ± 0.016 µM; in the experiment on U-2 OS (setting [1]), 0.049 ± 0.033 µM; in the experiment on KB3.1 (setting [1]), 0.114 ± 0.049 µM.

Consider `CCOC(=O)CCSCCC[C@@H]1C[C@H](O)[C@H](C)C[C@H](C)C[C@H](C)C(=O)NCC(=O)N(C)[C@H](Cc2ccc(O)c(I)c2)C(=O)O1` [Compound 11d, Ethyl 3-({3-[(3R,9S,11S,13R,14S,16R)-14-hydroxy-3-(4-hydroxy-3-iodobenzyl)-4,9,11,13-tetramethyl-2,5,8-trioxo-1-oxa-4,7-diazacyclohexadecan-16-yl]propyl}-thio)propanoate], for which the IC50 in the experiment with HepG2 was above 49.4 µM; in the experiment on CHO-K1, 9.84 ± 3.87 µM; in the experiment with HCT-116 (setting [1]), 0.06 ± 0.013 µM; with U-2 OS it was 4.9 ± 3.87 µM; in the experiment on KB3.1, 3.93 ± 1.14 µM.

Turning to `C[C@H]1C[C@@H](C)[C@@H](O)C[C@@H](Cc2cn(CCOCCOCCO)nn2)OC(=O)[C@@H](Cc2ccc(O)c(I)c2)N(C)C(=O)CNC(=O)[C@@H](C)C1` [Compound 9e, (3R,9S,11S,13R,14S,16R)-14-Hydroxy-3-(4-hydroxy-3-iodobenzyl)-16-((1-(2-(2-(2-hydroxyethoxy)ethoxy)ethyl)-1H-1,2,3-triazol-4-yl)methyl)-4,9,11,13-tetramethyl-1-oxa-4,7-diazacyclohexadecane-2,5,8-trione], the concentration for half-maximal inhibition (IC50) is above 47 µM in the experiment on HepG2; above 47 µM with CHO-K1; 8.55 ± 1.14 µM with HCT-116; 23 ± 4.4 µM in the experiment with U-2 OS; 10.5 ± 0.3 µM with KB3.1.

Regarding `CCCCSCCC[C@@H]1C[C@H](O)[C@H](C)C[C@H](C)C[C@H](C)C(=O)NCC(=O)N(C)[C@H](Cc2ccc(O)c(I)c2)C(=O)O1` [Compound 11b, (3R,9S,11S,13R,14S,16R)-16-[3-(Butylthio)propyl]-14-hydroxy-3-(4-hydroxy-3-iodobenzyl)-4,9,11,13-tetramethyl-1-oxa-4,7-diazacyclohexadecane-2,5,8-trione], the half-maximal inhibitory concentration (IC50) with HepG2 is above 52.5 µM; in the experiment on CHO-K1, 0.142 ± 0.085 µM; with HCT-116, above 52.5 µM; in the experiment with U-2 OS (setting [1]), 0.238 ± 0.01 µM; in the experiment with KB3.1 (setting [1]), 0.028 ± 0.003 µM.

Consider `C[C@H]1C[C@@H](C)[C@@H](O)C[C@@H](Cc2cn(CCOCCOCC(=O)O)nn2)OC(=O)[C@@H](Cc2ccc(O)c(I)c2)N(C)C(=O)CNC(=O)[C@@H](C)C1` [Compound 9d, 2-{2-[2-(4-{[(3R,9S,11S,13R,14S,16R)-14-Hydroxy-3-(4-hydroxy-3-iodobenzyl)-4,9,11,13-tetramethyl-2,5,8-trioxo-1-oxa-4,7-diazacyclohexadecan-16-yl]methyl}-1H-1,2,3-triazol-1-yl)ethoxy]ethoxy}acetic Acid], for which the half-inhibitory concentration (IC50) with HepG2, with CHO-K1, in the experiment with HCT-116, in the experiment with U-2 OS and in the experiment on KB3.1 was above 46.2 µM each time.

For `COc1ccc(C#CC[C@@H]2C[C@H](O)[C@H](C)C[C@H](C)C[C@H](C)C(=O)NCC(=O)N(C)[C@H](Cc3ccc(O)c(I)c3)C(=O)O2)cc1` [Compound 10b, (3R,9S,11S,13R,14S,16R)-14-Hydroxy-3-(4-hydroxy-3-iodobenzyl)-16-[3-(4-methoxyphenyl)prop-2-yn-1-yl]-4,9,11,13-tetramethyl-1-oxa-4,7-diazacyclohexadecane-2,5,8-trione], the IC50 was above 51.5 µM in the experiment with HepG2; 1.46 ± 0.28 µM in the experiment on CHO-K1; 0.153 ± 0.056 µM in the experiment on HCT-116 (setting [1]); 1.88 ± 0.11 µM with U-2 OS; 459 ± 111 µM in the experiment with KB3.1.

Take `C[C@H]1C[C@@H](C)[C@@H](O)C[C@@H](CC#C[Si](C)(C)C)OC(=O)[C@@H](Cc2ccc(O)c(I)c2)N(C)C(=O)CNC(=O)[C@@H](C)C1` [Compound 8a, (3R,9S,11S,13R,14S,16R)-14-Hydroxy-3-(4-hydroxy-3-iodobenzyl)-4,9,11,13-tetramethyl-16-[3-(trimethylsilyl)prop-2-yn-1-yl]-1-oxa-4,7-diazacyclohexadecane-2,5,8-trione]: the IC50 is 20 ± 4.5 µM with HepG2; 0.38 ± 0.044 µM in the experiment on CHO-K1; 0.008 ± 0.0073 µM in the experiment on HCT-116 (setting [1]); 0.336 ± 0.146 µM with U-2 OS (setting [1]); at most 0.115 µM in the experiment with KB3.1 (setting [1]).

As for `C[C@H]1C[C@@H](C)[C@@H](O)C[C@@H](Cc2cn(CCOCCOCCNC(=O)OC(C)(C)C)nn2)OC(=O)[C@@H](Cc2ccc(O)c(I)c2)N(C)C(=O)CNC(=O)[C@@H](C)C1` [Compound 9f, tert-Butyl (2-{2-[2-(4-{[(3R,9S,11S,13R,14S,16R)-14-hydroxy-3-(4-hydroxy-3-iodobenzyl)-4,9,11,13-tetramethyl-2,5,8-trioxo-1-oxa-4,7-diazacyclohexadecan-16-yl]methyl}-1H-1,2,3-triazol-1-yl)ethoxy]ethoxy}ethyl)carbamate], the 50% inhibitory concentration (IC50) in the experiment with HepG2 was above 41.7 µM; in the experiment with CHO-K1, 6.38 ± 2.81 µM; in the experiment with HCT-116 (setting [1]), 0.086 ± 0.079 µM; with U-2 OS it was 1.56 ± 0.67 µM; with KB3.1 (setting [1]), 0.722 ± 0.18 µM.

With `C[C@H]1C[C@@H](C)[C@@H](O)C[C@@H](Cc2cn(CCOCCOCCOCCNC(=O)OC(C)(C)C)nn2)OC(=O)[C@@H](Cc2ccc(O)c(I)c2)N(C)C(=O)CNC(=O)[C@@H](C)C1` [Compound 9g, tert-Butyl [2-(2-{2-[2-(4-{[(3R,9S,11S,13R,14S,16R)-14-hydroxy-3-(4-hydroxy-3-iodobenzyl)-4,9,11,13-tetramethyl-2,5,8-trioxo-1-oxa-4,7-diazacyclohexadecan-16-yl]methyl}-1H-1,2,3-triazol-1-yl)ethoxy]ethoxy}ethoxy)ethyl]carbamate], the half-inhibitory concentration (IC50) in the experiment on HepG2 is above 39.7 µM; in the experiment with CHO-K1, 12.9 ± 3 µM; in the experiment on HCT-116 (setting [1]), 0.432 ± 0.14 µM; in the experiment on U-2 OS, 2.94 ± 1.75 µM; in the experiment with KB3.1, 3.29 ± 1.39 µM.

Consider “Benzyl 2-(4-{[(3R,9S,11S,13R,14S,16R)-14-hydroxy-3-(4-hydroxy-3-iodobenzyl)-4,9,11,13-tetramethyl-2,5,8-trioxo-1-oxa-4,7-diazacyclohexadecan-16-yl]methyl}-1H-1,2,3-triazol-1-yl)acetate [Compound 9c]”, for which the IC50 is above 46 µM in the experiment on HepG2; 23.8 ± 0.5 µM with CHO-K1; 3.81 ± 1 µM with HCT-116; 14.4 ± 1.3 µM in the experiment on U-2 OS; 21.9 ± 12.6 µM with KB3.1.

Regarding `CCCCCn1cc(C[C@@H]2C[C@H](O)[C@H](C)C[C@H](C)C[C@H](C)C(=O)NCC(=O)N(C)[C@H](Cc3ccc(O)c(I)c3)C(=O)O2)nn1` [Compound 9b, (3R,9S,11S,13R,14S,16R)-14-hydroxy-3-(4-hydroxy-3-iodobenzyl)-4,9,11,13-tetramethyl-16-((1-pentyl-1H-1,2,3-triazol-4-yl)methyl)-1-oxa-4,7-diazacyclohexadecane-2,5,8-trione], the IC50 in the experiment on CHO-K1 was 0.069 ± 0.012 µM; in the experiment on HCT-116 (setting [1]), at most 0.11 µM; with U-2 OS (setting [1]), at most 0.11 µM; in the experiment with KB3.1 (setting [1]), 0.041 ± 0.014 µM.
